Laboratory results as given in US12628857B2, “Compositions comprising human milk oligosaccharides for use in a subject to support night sleep duration” (SOCIETE DES PRODUITS NESTLE S.A., priority 2020, dated 2026).

Tests used:
breast-fed children [1] = experiment: Correlation of breast milk HMO levels with sleep duration (BISQ), BCP-Enriched cohort; assay type: in vivo, human; conditions: FIG. 1
Text: (§1) The “BISQ” questionnaire is the brief infant sleep questionnaire, this questionnaire has been developed to screen sleep problems in infants and young children. This questionnaire has also been commonly used in sleep research to quantify quantity and quality of sleep as well as sleep maturation (Sadeh A. “Sleep assessment method” Monographs Soc Res Child Dev 80(1) 2015).
(§2) In the framework of the BISQ questionnaire one or more parameters are observed and recorded that are selected in the group consisting of: nocturnal sleep duration (between the hours of 7 pm and 7 am); daytime sleep duration (between the hours of 7 am and 7 pm); number of night awaking; duration of wakefulness during the night hours (10 pm to 6 am); nocturnal sleep-onset time (the clock time at which the child falls asleep for the night); settling time (latency to falling asleep for the night); method of falling asleep; location of sleep; and preferred body position. […]
A subset of typically developing children (n=92) enrolled in the BCP cohort aged between 0-20 months who were breast-fed at the time of visit were included in this study. […] The collected BMs were analyzed for HMOs, including 2′-Fucosyllactose (2FL), 3′-Fucosyllactose (3FL), 3′-Sialyllactose (3SL), 6′-Sialyllactose (6SL), Lacto-N-tetraose (LNT), Lacto-N-neotetraose (LNnT), Lacto-N-fucopentaose I (LNFP1), and A-Tetrasaccharide. […]

breast-fed children [2] = experiment: Association of breast milk HMO levels with BISQ sleep parameters, LIFE Child cohort; assay type: in vivo, human; conditions: 3 months of age
Text: as §1, §2
A subset of typically developing children enrolled in the LIFE Child cohort aged between 0-12 months who were breast-fed at the time of visit were included in this study. and consists of breast milk samples—collected in mothers at 3, 6 and 12 months after child's birth—and questionnaires—collected during pregnancy and the first year of the child's life—containing information about children sleep and some related confounding factors. the analysis was conducted on 153 subjects at 3 months, 113 subjects at 6 months and 27 subjects at 12 months. The collected BMs were analyzed for HMOs, including 2′-Fucosyllactose (2FL), 3′-Fucosyllactose (3FL), 3′-Sialyllactose (3SL), 6′-Sialyllactose (6SL), Lacto-N-tetraose (LNT), Lacto-N-neotetraose (LNnT), Lacto-N-fucopentaose I (LNFP1), and A-Tetrasaccharide. The association between sleep parameters generated using the BISQ and breast milk HMO levels were evaluated using logistic regression models. […] Both LNT and total core-HMO correlated with total night sleep time assessed by the BISQ (p<0.05, FIGS. 3 and 4 respectively).

Row | SMILES | Correlation of total night-time sleep time with breast milk levels (breast-fed children [1]; BCP-Enriched, n=92, infant aged more than 11 months, p=0.05) | Correlation of total night time sleep with breast milk levels (breast-fed children [1]; BCP-enriched cohort, age >10 months, p<0.05) | Correlation of total night time sleep with breast milk levels (breast-fed children [2]; BISQ, p<0.05, FIGS. 3 and 4) | Dependence of the night sleep association on the method to go to sleep (need of rocking) (breast-fed children [2]; FIG. 3) | Correlation of total sleep time with breast milk levels (breast-fed children [2]; p<0.05, FIG. 2)
1 | CC(=O)N[C@H]1[C@H]([C@H](O)[C@H](O)CO)O[C@@](O[C@H]2[C@@H](O)[C@@H](CO)O[C@@H](O[C@H]3[C@H](O)[C@@H](O)C(O)O[C@@H]3CO)[C@@H]2O)(C(=O)O)C[C@@H]1O (stereo partly drawn) [3SL, (6R)-5-Acetamido-3,5-dideoxy-6-[(1R,2R)-1,2,3-trihydroxypropyl]-β-L-threo-hex-2-ulopyranonosyl-(2→3)-β-D-galactopyranosyl-(1→4)-D-glucopyranose] | correlate positively | significantly correlated | – | – | –
2 | CC(=O)N[C@H]1[C@H](O[C@H]2[C@@H](O)[C@@H](CO)O[C@@H](O[C@H]3[C@H](O)[C@@H](O)C(O)O[C@@H]3CO)[C@@H]2O)O[C@H](CO)[C@@H](O)[C@@H]1O[C@@H]1O[C@H](CO)[C@H](O)[C@H](O)[C@H]1O (some centres unmarked) [LNT, Lacto-N-tetraose] | – | – | significantly correlated | independent of the method to go to sleep | significantly correlated
